Results from patent US12202844B2, “MAP4K1 inhibitors” (Blueprint Medicines Corporation, priority 2021, dated 2025).
Like-named read-outs stand apart in the source and are kept apart here.

Assays:
MAP4K1 (HPK1) = molecular target: T1, MAP4K1 (HPK1) (Homo sapiens, UniProt Q92918); assay: Inhibition of MAP4K1 biochemical enzymatic activity (EZReader 2 electrophoretic mobility shift); details: HPK1 (Invitrogen), S6K2tide 1.5 μM, 120 min; ATP 26 μM or 1000 μM (not given)
T1 construct: purchased Invitrogen
Procedure, shortened: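 Untreated enzyme (0.1-15 nM) was incubated with 1.5 μM fluorescent peptide and 20-1000 μM ATP (apparent Km or 1 mM) in HEPES pH 7.5, MgCl2, DTT, Brij 35 at 25° C. for 60-180 min, with 1% DMSO and a 10-point 4-fold compound series. After an EDTA stop, product/substrate peptide peak ratio was read by mobility shift.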

[1] = system: Primary T Cell (expanded CD3+ T cells); assay: T cell enhancement of cytokines: IL2 measurement (HTRF) in stimulated expanded CD3+ T cells; type: cell-based, human; details: plate-bound anti-CD3 and soluble anti-CD28, 24 h, IL2 by HTRF, read-out: IL-2 Primary T Cell EC50
Experimental: T cells are isolated from whole blood of healthy donors by immunomagnetic negative selection following manufacture's protocol (StemCell Technologies, human T cell isolation kit). Purity of isolated cells is assessed by flow cytometry and yields 95-98% CD3^+ T cells. For expansion of T cells, 1×10^6 cells/well are plated in serum free cell expansion media (ThermoFisher) containing 30 U of recombinant human IL2 (R&D) and stimulated with 25 ul of CD3/CD28 beads (Invitrogen) in 24 well plates for 3-4 days. T cells are then expanded in 175 cm flasks and maintained at a cell density of 1 to 2.5×10^6 cells/ml days by addition of ⅔ of fresh media every 2-3 days. After 10-14 days, cells are frozen in BamBanker freezing media (Thermo) and stored in liquid nitrogen.
For IL2 measurement, expanded CD3^+ T cells are dispensed at 100K cells/well (cultured in X-VIVO 10 Serum-free media) and are stimulated with plate-bound anti-CD3 and soluble anti-CD28 in the presence of vehicle or compound of the disclosure at various concentrations for 24 h. As outlined in the manufacturer's protocol (Cisbio), 16 μL of conditioned media is transferred to a white 384-well low volume plate. Following a 24 h incubation with the anti-IL2 antibodies, the homogenous time resolved fluorescence (HTRF) is measured.

T1 sequence (Q92918 whole entry): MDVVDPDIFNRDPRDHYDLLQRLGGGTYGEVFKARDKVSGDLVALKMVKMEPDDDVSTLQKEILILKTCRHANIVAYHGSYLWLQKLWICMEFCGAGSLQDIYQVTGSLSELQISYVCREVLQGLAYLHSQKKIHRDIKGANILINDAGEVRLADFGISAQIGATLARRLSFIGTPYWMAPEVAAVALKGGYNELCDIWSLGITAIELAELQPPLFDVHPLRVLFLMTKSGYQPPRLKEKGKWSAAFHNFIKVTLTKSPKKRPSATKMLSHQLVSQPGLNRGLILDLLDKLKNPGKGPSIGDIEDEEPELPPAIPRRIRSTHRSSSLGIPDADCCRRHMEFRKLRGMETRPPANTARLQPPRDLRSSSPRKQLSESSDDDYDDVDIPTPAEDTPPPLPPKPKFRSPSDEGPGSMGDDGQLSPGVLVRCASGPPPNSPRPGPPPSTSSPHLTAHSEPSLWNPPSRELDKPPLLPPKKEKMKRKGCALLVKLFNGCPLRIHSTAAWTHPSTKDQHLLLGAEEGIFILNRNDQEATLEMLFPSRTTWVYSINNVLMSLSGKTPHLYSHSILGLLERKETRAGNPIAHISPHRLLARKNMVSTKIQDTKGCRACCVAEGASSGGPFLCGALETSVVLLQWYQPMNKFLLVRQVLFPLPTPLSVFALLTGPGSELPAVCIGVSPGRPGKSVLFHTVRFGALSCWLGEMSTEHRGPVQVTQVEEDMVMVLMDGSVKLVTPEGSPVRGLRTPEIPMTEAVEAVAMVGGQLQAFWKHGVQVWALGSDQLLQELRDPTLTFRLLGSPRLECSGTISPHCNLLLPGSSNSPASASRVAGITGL

Compound	IC50 (MAP4K1 (HPK1)) [nM]	EC50 [1] [nM]	EC50 ([1]; Homo sapiens, T-cell, 24 h) [nM]
CC[C@@](C)(N)c1cnc(O[C@H](C)CCS(=O)(=O)CC)c2cnc(Nc3ccc4c(n3)[C@@H](C)[C@H](C)OC4=O)cc12 (single isomer, unassigned) [Compound 93]	0.19	9	–
C[C@@H]1OC(=O)c2ccc(Nc3cc4c(C(C)(C)N)cnc(O[C@H]5C[C@@H](S(C)(=O)=O)C5)c4cn3)nc2[C@H]1C [Compound 13]	0.12	–	15
CC[C@@](C)(N)c1cnc(O[C@H]2C[C@@H](S(=O)(=O)CC)C2)c2cnc(Nc3ccc4c(n3)[C@@H](C)[C@H](C)OC4=O)cc12 [Compound 77]	0.06	–	3
CC[C@@](C)(N)c1cnc(O[C@H](C)C[C@@H](C)S(C)(=O)=O)c2cnc(Nc3ccc4c(n3)C(C)(C)[C@H](C)OC4=O)cc12 (single isomer, unassigned) [Compound 186]	0.15	–	15
C[C@@H]1c2nc(Nc3cc4c(C(C)(C)N)cnc(O[C@H]5C[C@@H](CS(C)(=O)=O)C5)c4cn3)ccc2C(=O)OC1(C)C (single isomer, unassigned) [Compound 76]	0.07	–	25
CC[C@@](C)(N)c1cnc(O[C@@H](C)CCS(C)(=O)=O)c2cnc(Nc3ccc4c(n3)[C@@H](C)[C@@H](C)OC4=O)cc12 (single isomer, unassigned) [Compound 148]	0.57	–	26
CC[C@@](C)(N)c1cnc(O[C@H](C)CCS(C)(=O)=O)c2cnc(Nc3ccc4c(n3)[C@@H](C)[C@@H](C)OC4=O)cc12 (single isomer, unassigned) [Compound 153]	0.27	–	25
C[C@H](C[C@@H](C)S(C)(=O)=O)Oc1ncc(C(C)(C)N)c2cc(Nc3ccc4c(n3)[C@@H](C)C(C)(C)OC4=O)ncc12 [Compound 91]	0.22	–	24
C[C@@H]1c2nc(Nc3cc4c(C(C)(C)N)cnc(O[C@H]5C[C@@H](S(=O)(=O)C6CC6)C5)c4cn3)ccc2C(=O)OC1(C)C [Compound 102]	0.14	–	15
CC[C@@](C)(N)c1cnc(O[C@H](C)CCS(C)(=O)=O)c2cnc(Nc3ccc4c(n3)[C@@H](C)[C@H](C)OC4=O)cc12 [Compound 52, (7S,8R)-2-((5-((R)-2-Aminobutan-2-yl)-8-(((R)-4-(methylsulfonyl)butan-2-yl)oxy)-2,7-naphthyridin-3-yl)amino)-7,8-dimethyl-7,8-dihydro-5H-pyrano[4,3-b]pyridin-5-one]	0.13	–	9
CCS(=O)(=O)[C@H]1C[C@@H](Oc2ncc([C@](C)(N)COC)c3cc(Nc4ccc5c(n4)[C@@H](C)[C@H](C)OC5=O)ncc23)C1 [Compound 122]	0.1	–	27
C[C@@H]1c2nc(Nc3cc4c(C(C)(C)N)cnc(O[C@H]5C[C@H](CS(C)(=O)=O)C5)c4cn3)ccc2C(=O)OC1(C)C (single isomer, unassigned) [Compound 75]	0.07	–	28
CC[C@@](C)(N)c1cnc(O[C@H](C)C[C@@H](C)[S@](C)(=N)=O)c2cnc(Nc3ccc4c(n3)C3(CC3)[C@@H](C)OC4=O)cc12 (single isomer, unassigned) [Compound 181]	0.18	–	85
COC[C@@](C)(N)c1cnc(O[C@H]2C[C@@H](S(C)(=O)=O)C2)c2cnc(Nc3ccc4c(n3)C3(CC3)C(C)(C)OC4=O)cc12 [Compound 162]	0.3	–	32
CC[C@@](C)(N)c1cnc(O[C@H]2C[C@@H](S(C)(=O)=O)C2)c2cnc(Nc3ccc4c(n3)[C@@H](C)[C@H](C)OC4=O)cc12 [Compound 38]	0.12	–	5
C[C@@H]1c2nc(Nc3cc4c(C(C)(C)N)cnc(OCCC[S@](C)(=N)=O)c4cn3)ccc2C(=O)OC1(C)C (single isomer, unassigned) [Compound 168]	0.26	–	35
CC[C@@](C)(N)c1cnc(O[C@H](C)C[C@@H](C)S(=O)(=O)CC)c2cnc(Nc3ccc4c(n3)[C@@H](C)C(C)(C)OC4=O)cc12 [Compound 143]	0.15	–	16
CCS(=O)(=O)[C@H]1C[C@@H](Oc2ccc(C(C)(C)N)c3cc(Nc4ccc5c(n4)[C@@H](C)C(C)(C)OC5=O)ncc23)C1 [Compound 63]	0.09	–	14

Compound	IC50 (MAP4K1 (HPK1)) [nM]	EC50 [1] [nM]	EC50 ([1]; Homo sapiens, T-cell, 24 h) [nM]
CC[C@@](C)(N)c1cnc(O[C@H](C)CCS(=O)(=O)CC)c2cnc(Nc3ccc4c(n3)[C@@H](C)C(C)(C)OC4=O)cc12 (single isomer, unassigned) [Compound 133]	0.2	–	23
COC[C@@](C)(N)c1cnc(O[C@H](C)C[C@@H](C)S(C)(=O)=O)c2cnc(Nc3ccc4c(n3)[C@@H](C)C(C)(C)OC4=O)cc12 [Compound 144]	0.23	–	39
CC[C@@](C)(N)c1cnc(O[C@H](C)C[C@@H](C)S(C)(=O)=O)c2cnc(Nc3ccc4c(n3)CC(C)(C)OC4=O)cc12 [Compound 87]	0.13	–	29
COC[C@@](C)(N)c1cnc(O[C@H]2C[C@@H](S(=O)(=O)C3CC3)C2)c2cnc(Nc3ccc4c(n3)[C@@H](C)C(C)(C)OC4=O)cc12 [Compound 145]	0.21	–	32
CC[C@@](C)(N)c1cnc(O[C@H]2C[C@@H](S(=O)(=O)CC)C2)c2cnc(Nc3ccc4c(n3)[C@@H](C)C(C)(C)OC4=O)cc12 [Compound 117]	0.05	–	6
CCC[C@@H](N)c1cnc(O[C@H]2C[C@@H](S(C)(=O)=O)C2)c2cnc(Nc3ccc4c(n3)[C@@H](C)C(C)(C)OC4=O)cc12 (single isomer, unassigned) [Compound 79]	0.34	–	94
CC[C@@](C)(N)c1cnc(O[C@@H](C)CCS(=O)(=O)CC)c2cnc(Nc3ccc4c(n3)[C@@H](C)C(C)(C)OC4=O)cc12 [Compound 132]	0.19	–	66
CC[C@@](C)(N)c1cnc(O[C@H](C)CCS(C)(=O)=O)c2cnc(Nc3ccc4c(n3)C3(CC3)[C@@H](C)OC4=O)cc12 (single isomer, unassigned) [Compound 66]	0.24	–	21
CC[C@@](C)(N)c1cnc(O[C@H](C)C[C@@H](C)[S@@](C)(=N)=O)c2cnc(Nc3ccc4c(n3)C(C)(C)[C@@H](C)OC4=O)cc12 (single isomer, unassigned) [Compound 183]	0.16	43	–
CCC[C@@H](N)c1cnc(O[C@H]2C[C@@H](S(=O)(=O)CC)C2)c2cnc(Nc3ccc4c(n3)[C@@H](C)C(C)(C)OC4=O)cc12 (single isomer, unassigned) [Compound 115]	0.33	–	59
CCS(=O)(=O)[C@H](C)C[C@@H](C)Oc1ncc([C@H](N)C2CC2)c2cc(Nc3ccc4c(n3)[C@@H](C)C(C)(C)OC4=O)ncc12 (single isomer, unassigned) [Compound 138]	0.3	–	38
COC[C@@](C)(N)c1cnc(O[C@H]2C[C@@H](S(C)(=O)=O)C2)c2cnc(Nc3ccc4c(n3)[C@@H](C)C(C)(C)OC4=O)cc12 [Compound 123]	0.16	–	34
CC[C@@](C)(N)c1cnc(O[C@H](C)CCS(C)(=O)=O)c2cnc(Nc3ccc4c(n3)[C@H](C)COC4=O)cc12 (single isomer, unassigned) [Compound 16]	0.31	–	44
CC[C@@](C)(N)c1cnc(O[C@H](C)C[C@@H](C)S(C)(=O)=O)c2cnc(Nc3ccc4c(n3)[C@H](C)COC4=O)cc12 (single isomer, unassigned) [Compound 48]	0.59	55	–
CCC[C@@](C)(N)c1cnc(O[C@H](C)CCS(C)(=O)=O)c2cnc(Nc3ccc4c(n3)[C@@H](C)C(C)(C)OC4=O)cc12 (single isomer, unassigned) [Compound 126]	0.17	–	21
C[C@H](CCS(C)(=O)=O)Oc1ncc(C(C)(C)N)c2cc(Nc3ccc4c(n3)[C@@H](C)C(C)(C)OC4=O)ncc12 (single isomer, unassigned) [Compound 55]	0.36	–	34
CCC[C@@](C)(N)c1cnc(O[C@H](C)CCS(C)(=O)=O)c2cnc(Nc3ccc4c(n3)[C@@H](C)[C@H](C)OC4=O)cc12 (single isomer, unassigned) [Compound 86]	0.2	–	26
CC[C@@](C)(N)c1cnc(O[C@H](C)C[C@@H](C)S(C)(=O)=O)c2cnc(Nc3ccc4c(n3)C3(CC3)C(C)(C)OC4=O)cc12 [Compound 136, 2′-((5-((R)-2-Aminobutan-2-yl)-8-(((2R,4R)-4-(methylsulfonyl)pentan-2-yl)oxy)-2,7-naphthyridin-3-yl)amino)-7′,7′-dimethyl-5′H,7′H-spiro[cyclopropane-1,8′-pyrano[4,3-b]pyridin]-5′-one]	0.28	–	10
